Source: publication PMC12752606, “METTL10‐Mediated PIAS3 Methylation Links Purine Metabolism to Gastric Cancer Progression” (Advanced Science, 2025)
Residues, ends and D or L forms follow the SMILES beside them. *: point of attachment. Cbz = O=C(OCc1ccccc1)*

Tests used:
[1] = test system: MITF levels in MKN45 cells; assay: Immunoblotting of MITF in METTL10-knockdown cells treated with MG132; type: cell-based; details: MG132 5 µM for 5 hours
Experimental: (§1) Protein extraction from tissues or cells was performed by lysis buffer (20 mM Tris‐HCl (pH 7.5), 150 mM NaCl, 1 mM EDTA, 1 mM EGTA, 2.5 mM sodium pyrophosphate, 1 mM β‐glycerolphosphate, 1% Triton X‐100) supplemented with 1% phenylmethylsulfonyl fluoride (PMSF; Solarbio, P0100) and protease inhibitor cocktail (Apexbio, K1007) and lysed at 4 °C for 60 min, followed by centrifugation at 12000 g for 15 min at 4 °C. For Immunoblotting, the protein concentration was determined using the Pierce BCA Protein Assay Kit (Thermo Fisher Scientific, A55864). The protein samples were denatured by boiling in SDS‐PAGE loading buffer. For immunoprecipitation, antibodies were incubated with Dynabeads Protein G (Thermo, 10004D) at 4 °C for 4 h. The supernatant was then incubated with magnetic beads conjugated with antibodies or anti‐FLAG‐M2 magnetic beads (Sigma–Aldrich, M8823) at 4 °C overnight. Following incubation, the magnetic beads were washed three times with lysis buffer and then boiled in SDS‐PAGE loading buffer. The proteins were separated by sodium dodecyl sulfate polyacrylamide gel electrophoresis (SDS‐PAGE) with One‐Step PAGE Gel Fast Preparation Kit (Vazyme), and then transferred to the PVDF Membrane (Bio‐Rad). After blocking with a protein‐free rapid blocking buffer (Epizyme, PS108P) for 15 min, the membranes were incubated with primary antibodies at 4 °C overnight. […]

[2] = test system: MITF protein levels in HA-PIAS3-overexpressing MKN45 cells; assay: Immunoblotting of MITF in PIAS3-overexpressing cells treated with MG132; type: cell-based; details: MG132 5 µM for 5 h
Experimental: as §1

CC(C)C[C@@H](C=O)NC(=O)[C@H](CC(C)C)NC(=O)[C@H](CC(C)C)NC(=O)OCc1ccccc1 [MG132] (Cbz-Leu-Leu-Leu-aldehyde)
Effect on decrease in MITF levels caused by knockdown of METTL10 [1]: completely eliminated the decrease in MITF levels
PIAS3-mediated degradation of MITF [2]: inhibited
